The target of assay [1] is T1, μ-opioid receptors (Rattus norvegicus, UniProt P33535).
T1 construct: A crude membrane fraction was prepared from Wistar rat brains and spinal cords; from tissue; host or cells: Wistar rat brain (without cerebellum), crude membrane fraction
The assay is described as follows: Receptor binding assay, [3H]DAMGO displacement in rat brain membranes.

Assay [2] concerns rats. The assay is described as follows: Behavioral nociceptive testing, paw-withdrawal test (PWD), heat pain threshold. It counts as in vivo, rat. The protocol: The paw-withdrawal test (PWD) was used to measure the heat pain threshold after the treatments. A detailed description of this model was published by Hargreaves et al. (Hargreaves, K.; Dubner, R.; Brown, F.; Flores, C.; Joris, J. Pain; 32, 77 1988). Briefly, rats were placed on a glass surface in a plastic chamber and were allowed to acclimatize to their environment for 15-30 min before testing. The baseline hind paw-withdrawal latencies (baseline values at 0 min determined two times) were then obtained. A heat stimulus was directed onto the plantar surface of each hind paw and the intensity of the thermal stimulus was adjusted to derive an average baseline latency of approximately 10 s (cut-off time 20 s). Then the animals were treated subcutaneously with different doses of ligands (0.3-10 mg/kg). The nociceptive threshold was determined at 15-min intervals for 120 min.
Data are presented as means±SEM. The mean of the two sides and the mean of two time points (15-30; 45-60; 75-90 and […]) were evaluated. The results were analyzed using a two-way ANOVA (ANalysis Of VAriances) (factors: treatment and time with repeated measurements). Subsequent analysis was performed using Fisher-LSD test. A p-value less than 0.05 was considered significant. Data were analyzed using […] 7.1. software (Statsoft Inc., Tulsa, Okla.).

Assay [3] has as its target T2, δ-opioid receptors (Rattus norvegicus, UniProt P33533).
T2 construct: A crude membrane fraction was prepared from Wistar rat brains and spinal cords; from tissue; host or cells: Wistar rat brain (without cerebellum), crude membrane fraction
The assay is described as follows: Receptor binding assay, [3H]Ile5,6-deltorphin-2 displacement in rat brain membranes.

T1 sequence (P33535 whole entry): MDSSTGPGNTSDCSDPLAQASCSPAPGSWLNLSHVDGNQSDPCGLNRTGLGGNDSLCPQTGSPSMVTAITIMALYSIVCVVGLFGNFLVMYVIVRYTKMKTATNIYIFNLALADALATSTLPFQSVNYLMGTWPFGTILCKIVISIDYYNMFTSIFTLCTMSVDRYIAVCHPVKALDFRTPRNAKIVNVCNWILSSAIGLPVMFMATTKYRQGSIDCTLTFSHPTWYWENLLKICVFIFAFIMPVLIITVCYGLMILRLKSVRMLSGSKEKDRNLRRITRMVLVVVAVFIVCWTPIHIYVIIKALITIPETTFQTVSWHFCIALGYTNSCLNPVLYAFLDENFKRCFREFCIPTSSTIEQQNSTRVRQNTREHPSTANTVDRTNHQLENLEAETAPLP
T2 sequence (P33533 whole entry): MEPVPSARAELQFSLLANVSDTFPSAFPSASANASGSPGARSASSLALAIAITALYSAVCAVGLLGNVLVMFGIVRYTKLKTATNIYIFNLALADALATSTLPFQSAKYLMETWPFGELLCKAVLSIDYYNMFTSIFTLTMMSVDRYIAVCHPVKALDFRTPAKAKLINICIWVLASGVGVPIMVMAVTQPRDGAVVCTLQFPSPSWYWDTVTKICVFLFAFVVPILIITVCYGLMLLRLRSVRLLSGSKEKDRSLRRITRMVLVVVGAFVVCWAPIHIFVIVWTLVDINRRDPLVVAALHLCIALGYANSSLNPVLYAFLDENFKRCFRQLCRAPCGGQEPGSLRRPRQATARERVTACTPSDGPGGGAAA

`[2H][C@@H]1[C@H]([2H])[C@H]2[C@H]3Cc4ccc(OC(C)=O)c5c4[C@@]2(CCN3C)[C@@H](O5)[C@H]1OC(C)=O` [Example 4, (5α,6α,7β,8β)-3,6-diacetoxy-4,5-epoxy-17-methyl-(7,8-^2H2)-morphinan]: the Ki in assay [1] was found to be 0.00289 ± 0.0007 µM; in assay [3], 0.211 ± 0.024 µM. Besides, the “affinity to μ-opioid receptors compared to morphine” value in assay [1] (in words) is “higher affinity to μ-opioid receptors than the morphine”. Also, the “Ki^δ/Ki^μ” value in assay [1] (selectivity ratio δ/μ) came out at 73. Besides, the “Time course of the antinociceptive effects (paw-withdrawal latency)” value in assay [2] (3 mg/kg s.c., 0 min (baseline)) came to 9.7 s; in assay [2] (3 mg/kg s.c., 30 min), 19.7 s; in assay [2] (3 mg/kg s.c., 60 min), 17.9 s; in assay [2] (3 mg/kg s.c., 90 min) it was 14.3 s; in assay [2] (3 mg/kg s.c., 120 min), 11.4 s. In assay [2] (3 mg/kg s.c., in words), the “duration of antinociceptive effect compared to other drugs” value is on record as “more prolonged effects compared to other drugs”. For the same molecule, the “antinociception, potency and dose dependence” value in assay [2] (s.c., 0.3-10 mg/kg, in words) is reported as “more potent”.

Values taken from US9447108B2 (SZEGEDI TUDOMÁNYEGYETEM, priority 2013, dated 2016).
